Data reported in patent US8906908B2, “Hydroxybupropion analogues for treating drug dependence” (priority 2010, dated 2014).
Read-outs that look alike come from different tables or passages of the source.

Tests used:
[1] = tested on: Male Institute of Cancer Research (ICR) mice; test: Body temperature, antagonism of nicotine-induced hypothermia; type: in vivo; details: pretreatment 15 min before nicotine 2.5 mg/kg s.c., tested 30 min after nicotine; for ED50: Mus musculus, 0.5 h, read-out: AD50 Hypothermia
Description: (§1) Animals: Male Institute of Cancer Research (ICR) mice (weighing 20-25 g) obtained from Harlan (Indianapolis, Ind.) were used throughout the study. Animals were housed in an Association for Assessment and Accreditation of Laboratory Animal Care-approved facility, were placed in groups of six, and had free access to food and water. Studies were approved by the Institutional Animal Care and Use Committee of Virginia Commonwealth University.
Body Temperature: Rectal temperature was measured by a thermistor probe (inserted 24 mm) and digital thermometer (YSI Inc., Yellow Springs, Ohio). Readings were taken just before and 30 min after subcutaneous injection of either saline or 2.5 mg/kg nicotine. The difference in rectal temperature before and after treatment was calculated for each mouse. The ambient temperature of the laboratory varied from 21 to 24° C. from day to day. […] The animals were then tested 30 min after administration of a subcutaneous dose of 2.5 mg/kg nicotine.

[2] = target: T1, 5HT transporters [(h)SERT] (Homo sapiens, UniProt P31645); test: Inhibition of [3H]serotonin uptake into HEK293 cells stably expressing hSERT; type: cell-based
T1 construct: expressed in transfected cells; host or cells: HEK-293
T1 sequence (P31645 whole entry): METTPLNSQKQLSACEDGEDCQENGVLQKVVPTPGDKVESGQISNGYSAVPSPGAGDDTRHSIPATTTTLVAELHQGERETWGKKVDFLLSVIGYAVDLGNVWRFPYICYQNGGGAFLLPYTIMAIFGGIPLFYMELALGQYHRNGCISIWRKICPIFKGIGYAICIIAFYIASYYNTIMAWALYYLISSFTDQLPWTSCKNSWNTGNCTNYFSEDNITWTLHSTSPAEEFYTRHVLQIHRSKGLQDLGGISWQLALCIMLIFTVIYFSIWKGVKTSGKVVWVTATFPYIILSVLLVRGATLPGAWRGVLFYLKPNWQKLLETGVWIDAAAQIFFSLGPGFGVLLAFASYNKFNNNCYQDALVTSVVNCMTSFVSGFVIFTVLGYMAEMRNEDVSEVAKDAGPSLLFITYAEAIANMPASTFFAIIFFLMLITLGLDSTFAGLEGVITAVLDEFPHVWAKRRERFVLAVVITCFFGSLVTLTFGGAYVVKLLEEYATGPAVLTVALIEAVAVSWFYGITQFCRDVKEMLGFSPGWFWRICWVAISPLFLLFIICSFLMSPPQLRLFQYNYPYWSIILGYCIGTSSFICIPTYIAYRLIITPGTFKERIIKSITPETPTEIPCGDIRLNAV
Source text: (§2) Cell Lines and Culture: Human embryonic kidney (HEK-293) cells stably expressing human DAT, NET or SERT were maintained as previously described in Eshleman, A. J.; Carmolli, M.; Cumbay, M.; Martens, C. R.; Neve, K. A.; Janowsky, A., J. Pharmacol. Exp. Ther. 1999, 289, (2), 877-885. Use was made of several human cell lines that naturally or heterologously express specific, functional, human nAChR subtypes. Cells of the TE671/RD line naturally expresses muscle-type nAChR (a1β1γδ- or α1*-nAChR), and SH-SY5Y neuroblastoma cells naturally expresses autonomic α3β4*-nAChRs (containing α3, β4, probably α5, and sometimes β2 subunits). Different clones of SH-EP1 epithelial cell lines have been engineered to heterologously express either α4β2-nAChR, which are thought to be the most abundant, high affinity nicotine-binding nAChR in mammalian brain, or α4β4-nAChR, another possible brain nAChR subtype (SH-EP1-hα4β2 or α4β4 cells, respectively). These cells were maintained as low passage number (1-26 from our frozen stocks) cultures to ensure stable expression of native or heterologously-expressed nAChR as previously described (see Lukas, R. J.; Fryer, J. D.; Eaton, J. B.; L., G. C., Some methods for studies of nicotinic acetylcholine receptor pharmacology, in Nicotinic receptors and the Nervous System, Levine, E. D., Ed. CRC Press: Boca Raton, 2002; pp 3-27, incorporated herein by reference in its entirety). Cells were passaged once weekly by splitting just-confluent cultures 1/300 (TE671/RD), 1/5 (SH-SY5Y), or 1/20 (transfected SH-EP1) in serum-supplemented medium to maintain log-phase growth.
(§3) See, for example, Damaj, M. I.; Carroll, F. I.; Eaton, J. B.; Navarro, H. A.; Blough, B. E.; Mirza, S.; Lukas, R. J.; Martin, B. R., Mol. Pharmacol. 2004, 66, (3), 675-682 and Eshleman, A. J.; Carmolli, M.; Cumbay, M.; Martens, C. R.; Neve, K. A.; Janowsky, A., J. Pharmacol. Exp. Ther. 1999, 289, (2), 877-885, both incorporated by reference herein in their entireties.

[3] = target: T2, α4β4-nAChR (Homo sapiens, UniProt P30926+P43681); test: 86Rb+ efflux nAChR functional assay, SH-EP1-hα4β4 cells; type: cell-based; details: EC80-EC90 carbamylcholine, parentheses = S.E.M. as multiplication/division factor, read-out: nAChR inhibition IC50 α4β4
T2 construct: expressed in transfected cells; host or cells: SH-EP1 epithelial cells (SH-EP1-hα4β4)
T2 sequence (P43681 29-627 limits assumed): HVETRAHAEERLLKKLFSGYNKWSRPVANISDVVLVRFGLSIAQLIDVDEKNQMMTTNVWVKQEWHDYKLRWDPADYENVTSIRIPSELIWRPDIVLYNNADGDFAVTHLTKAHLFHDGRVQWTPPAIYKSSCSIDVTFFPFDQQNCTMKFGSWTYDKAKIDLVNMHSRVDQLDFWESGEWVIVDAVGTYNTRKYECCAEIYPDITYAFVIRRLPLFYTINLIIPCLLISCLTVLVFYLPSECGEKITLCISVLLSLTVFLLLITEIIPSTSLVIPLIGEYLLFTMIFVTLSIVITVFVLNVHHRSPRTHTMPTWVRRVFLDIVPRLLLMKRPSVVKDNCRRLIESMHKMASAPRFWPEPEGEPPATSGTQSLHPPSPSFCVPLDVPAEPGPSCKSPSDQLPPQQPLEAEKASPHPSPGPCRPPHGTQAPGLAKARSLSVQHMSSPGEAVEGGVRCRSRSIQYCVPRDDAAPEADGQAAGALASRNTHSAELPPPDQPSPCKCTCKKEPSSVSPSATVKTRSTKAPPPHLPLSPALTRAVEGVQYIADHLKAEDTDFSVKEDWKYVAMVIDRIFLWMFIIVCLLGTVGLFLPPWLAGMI
T2 sequence (P30926 22-498): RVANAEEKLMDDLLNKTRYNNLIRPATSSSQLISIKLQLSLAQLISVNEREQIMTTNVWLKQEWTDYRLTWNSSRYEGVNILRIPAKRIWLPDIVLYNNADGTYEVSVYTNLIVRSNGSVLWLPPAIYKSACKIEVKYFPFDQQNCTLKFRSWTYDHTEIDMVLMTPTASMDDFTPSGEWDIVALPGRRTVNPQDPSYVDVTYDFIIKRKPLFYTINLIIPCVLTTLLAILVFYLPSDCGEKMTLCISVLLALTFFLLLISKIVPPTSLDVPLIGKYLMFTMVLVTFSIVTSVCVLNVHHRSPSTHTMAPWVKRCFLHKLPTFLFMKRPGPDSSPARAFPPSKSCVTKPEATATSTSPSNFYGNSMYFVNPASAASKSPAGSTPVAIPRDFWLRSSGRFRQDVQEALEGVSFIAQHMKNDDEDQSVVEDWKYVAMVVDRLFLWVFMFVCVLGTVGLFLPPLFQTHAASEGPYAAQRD
Source text: as §2
(§4) After cells had adhered (generally overnight, but no sooner than 4 h later), the medium was removed and replaced with 250 μL per well of complete medium supplemented with ˜350,000 cpm of ^86Rb^+ (PerkinElmer Life and Analytical Sciences, Boston, Mass.) and counted at 40% efficiency using Cerenkov counting (TriCarb 1900 liquid scintillation analyzer[…]; PerkinElmer Life Sciences).
(§5) After at least 4 h and typically overnight, ^86Rb^+ efflux was measured using the “flip-plate” technique. See Lukas, R. J.; Fryer, J. D.; Eaton, J. B.; L., G. C., Some methods for studies of nicotinic acetylcholine receptor pharmacology, in Nicotinic receptors and the Nervous System, Levine, E. D., Ed. CRC Press: Boca Raton, 2002; pp 3-27, incorporated herein by reference in its entirety). Briefly, after aspiration of the bulk of ^86Rb^+ loading medium from each well of the “cell plate,” each well containing cells was rinsed 3× with 2 mL of fresh ^86Rb^+ efflux buffer (130 mM NaCl, 5.4 mM KCl, 2 mM CaCl2, 5 mM glucose, 50 mM HEPES, pH 7.4) to remove extracellular ^86Rb^+. Following removal of residual rinse buffer by aspiration, the flip-plate technique was used again to simultaneously introduce 1.5 mL of fresh efflux buffer containing drugs of choice at indicated final concentrations from a 24-well “efflux/drug plate” into the wells of the cell plate. After a 5 min incubation, the solution was “flipped” back into the efflux/drug plate, and any remaining buffer in the cell plate was removed by aspiration. Cells remaining in the cell plate were lysed and suspended by addition of 1.5 mL of 0.1 M NaOH, 0.1% sodium dodecyl sulfate to each well.
(§6) Similarly, the sum of ^86Rb^+ in cell plates and efflux/drug plates also determined the efficiency of ^86Rb^+ loading (the percentage of applied ^86Rb^+ actually loaded into cells).
(§7) Specific efflux was then taken as the difference in control samples between total and non-specific ^86Rb^+ efflux. Any intrinsic agonist activity of test drugs was ascertained using samples containing test drug only at different concentrations and was normalized, after subtraction of non-specific efflux, to specific efflux in test drug-free, control samples.

[4] = target: T3, human DA transporters [(h)DAT] (Homo sapiens, UniProt Q01959); test: Inhibition of [3H]dopamine uptake into HEK293 cells stably expressing hDAT; type: cell-based
T3 construct: expressed in transfected cells; host or cells: HEK-293
T3 sequence (Q01959 whole entry): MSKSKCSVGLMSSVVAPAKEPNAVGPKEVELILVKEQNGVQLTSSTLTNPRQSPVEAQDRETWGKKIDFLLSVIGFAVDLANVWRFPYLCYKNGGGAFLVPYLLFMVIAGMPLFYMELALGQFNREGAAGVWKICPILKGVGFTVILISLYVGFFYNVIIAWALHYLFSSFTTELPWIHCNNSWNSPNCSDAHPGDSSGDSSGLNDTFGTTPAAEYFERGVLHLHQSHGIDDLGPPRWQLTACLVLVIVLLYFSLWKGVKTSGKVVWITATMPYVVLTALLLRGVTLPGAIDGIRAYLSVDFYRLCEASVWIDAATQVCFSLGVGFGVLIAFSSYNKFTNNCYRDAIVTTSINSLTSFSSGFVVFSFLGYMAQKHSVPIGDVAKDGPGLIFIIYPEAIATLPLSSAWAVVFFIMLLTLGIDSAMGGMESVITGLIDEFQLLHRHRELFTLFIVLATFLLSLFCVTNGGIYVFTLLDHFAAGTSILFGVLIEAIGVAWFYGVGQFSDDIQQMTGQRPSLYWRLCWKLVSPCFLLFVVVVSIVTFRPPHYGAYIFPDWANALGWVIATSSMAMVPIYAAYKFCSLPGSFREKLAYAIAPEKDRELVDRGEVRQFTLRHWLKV
Source text: as §2, §3

[5] = tested on: Male Institute of Cancer Research (ICR) mice; test: Locomotor activity, antagonism of nicotine effect; type: in vivo; details: for ED50: Mus musculus, pretreatment 15 min before nicotine 1.5 mg/kg s.c., read-out: AD50 Locomotion; for AD50 Locomotion: pretreatment 15 min before nicotine […] s.c.
Source text: as §1
Locomotor Activity: Mice were placed into individual Omnitech photocell activity cages (28×16.5 cm; Omnitech Electronics, Columbus, Ohio) 5 min after subcutaneous administration of either 0.9% saline or nicotine (1.5 mg/kg). Interruptions of the photocell beams (two banks of eight cells each) were then recorded for the next 10 min. Data were expressed as the number of photocell interruptions.

[6] = target: T4, α3β4*-nAChR (Homo sapiens, UniProt P30926+P32297); test: 86Rb+ efflux nAChR functional assay, SH-SY5Y cells; type: cell-based; details: EC80-EC90 carbamylcholine; SH-SY5Y; parentheses = S.E.M. as multiplication/division factor; read-out: nAChR inhibition IC50 α3β4±
T4 construct: other: EC80-EC90 carbamylcholine; SH-SY5Y; parentheses = S.E.M. as multiplication/division
T4 sequence (P32297 32-505): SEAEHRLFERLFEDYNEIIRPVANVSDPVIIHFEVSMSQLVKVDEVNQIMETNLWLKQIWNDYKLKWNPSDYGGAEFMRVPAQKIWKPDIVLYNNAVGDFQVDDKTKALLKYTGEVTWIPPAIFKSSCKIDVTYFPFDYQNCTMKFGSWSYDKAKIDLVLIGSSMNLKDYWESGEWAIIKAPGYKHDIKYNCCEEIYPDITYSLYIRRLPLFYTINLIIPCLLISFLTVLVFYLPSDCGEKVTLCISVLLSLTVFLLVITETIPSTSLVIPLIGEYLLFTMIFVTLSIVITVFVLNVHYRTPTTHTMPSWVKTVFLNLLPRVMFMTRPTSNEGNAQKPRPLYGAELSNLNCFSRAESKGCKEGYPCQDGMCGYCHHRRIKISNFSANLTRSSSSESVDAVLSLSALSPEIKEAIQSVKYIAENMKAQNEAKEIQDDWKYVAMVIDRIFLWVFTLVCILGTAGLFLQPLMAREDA
T4 sequence (P30926 22-498): as the sequence (P30926 22-498) above
Source text: as §2, §4, §5, §6, §7

[7] = HEK293-hSERT, mean ± standard error of three independent experiments, read-out: monoamine uptake inhibition IC50 [3H]5HT
[8] = HEK293-hDAT, mean ± standard error of three independent experiments, read-out: monoamine uptake inhibition IC50 [3H]DA
[9] = read-out: monoamine uptake inhibition IC50 [3H]5HT

SMILES	AD50 Hypothermia [1]	IC50 [2, 7]	IC50 [3]	IC50 [4, 8]	ED50 [5]	IC50 [6]	AD50 Locomotion [5]	ED50 [1]	IC50 [2]	IC50 [2, 9]	IC50 [4]	selectivity for inhibition of DA uptake over α4β2-nAChR [4]
CC1NC(C)(C)COC1(O)c1cc(Cl)cc(Cl)c1 (racemic) [Compound 4p, 2-(3,5-Dichlorophenyl)-3,5,5-trimethylmorpholin-2-ol]	IA (IA: AD50 > 15 mg/kg)	> 10 µM	18 µM	8250 ± 720 nM	1.9 mg/kg							
C[C@@H]1NC(C)(C)CO[C@@]1(O)c1ccc(F)c(F)c1 [Compound 4m, (2S,3S)-2-(3,4-Difluorophenyl)-3,5,5-trimethylmorpholin-2-ol]	IA (IA: AD50 > 15 mg/kg)	> 10 µM	> 100 µM	2140 ± 180 nM		11.9 µM	IA (IA: AD50 > 15 mg/kg)					
C[C@@H]1NC(C)(C)CO[C@@]1(O)c1cccc(Br)c1 [Compound 4d, (2S,3S)-2-(3-Bromophenyl)-3,5,5-trimethylmorpholin-2-ol]			30 µM	3340 ± 680 nM	2.6 mg/kg	3.2 µM	2.6 mg/kg	1.7 mg/kg	> 10 µM			
C[C@@H]1NC(C)(C)CO[C@@]1(O)c1cccc2ccccc12 [Compound 4q, (2S,3S)-2-(Naphthalen-1-yl)-3,5,5-trimethylmorpholin-2-ol]	IA (IA: AD50 > 15 mg/kg)		13 µM	10000 nM		5.2 µM	IA (IA: AD50 > 15 mg/kg)			1.56 ± 0.215 µM		
C[C@@H]1NC(C)(C)CO[C@@]1(O)c1cccc(F)c1 [Compound 4c, (2S,3S)-2-(3-Fluorophenyl)-3,5,5-trimethylmorpholin-2-ol]			> 100 µM	1380 ± 360 nM		15 µM	IA (IA: AD50 > 15 mg/kg)	2.3 to 7 mg/kg	> 10 µM			
C[C@@H]1NC(C)(C)CO[C@@]1(O)c1cccc([N+](=O)[O-])c1 [Compound 4g, (2S,3S)-2-(3-Nitrophenyl)-3,5,5-trimethylmorpholin-2-ol]		> 10 µM	80 µM	12000 nM		14 µM	IA (IA: AD50 > 15 mg/kg)					
CC1NC(C)(C)COC1(O)c1ccc(Cl)c(Cl)c1 (racemic) [Compound 4n, 2-(3,4-Dichlorophenyl)-3,5,5-trimethylmorpholin-2-ol]	IA (IA: AD50 > 15 mg/kg)		14 µM				IA (IA: AD50 > 15 mg/kg)		0.36 µM		70 nM	> 285 fold
CC[C@@H]1NC(C)(C)CO[C@@]1(O)c1cccc(Cl)c1 [Compound 4s, (2S,3S)-2-(3-Chlorophenyl)-3-ethyl-5,5-dimethylmorpholin-2-ol]			16 µM	204 ± 23 nM	10.3 mg/kg	4.3 µM				2.5 ± 0.54 µM		
C[C@@H]1NC(C)(C)CO[C@@]1(O)c1ccc(F)cc1 [Compound 4h, (2S,3S)-2-(4-Fluorophenyl)-3,5,5-trimethylmorpholin-2-ol]		> 10 µM	> 100 µM	4200 ± 700 nM		20 µM	IA (IA: AD50 > 15 mg/kg)					
C[C@@H]1NC(C)(C)CO[C@@]1(O)c1ccc2ccccc2c1 [Compound 4r, (2S,3S)-2-(Naphthalen-2-yl)-3,5,5-trimethylmorpholin-2-ol]	IA (IA: AD50 > 15 mg/kg)		11 µM	453 nM		2 µM	IA (IA: AD50 > 15 mg/kg)			0.334 ± 0.042 µM		
C[C@@H]1N(C)C(C)(C)CO[C@@]1(O)c1cccc(Cl)c1 [Compound 4u, (2S,3S)-2-(3-Chlorophenyl)-3,4,5,5-tetramethylmorpholin-2-ol]	IA (IA: AD50 > 15 mg/kg)	> 10 µM	43 µM	3400 ± 600 nM		6.5 µM	IA (IA: AD50 > 15 mg/kg)					
Cc1ccc([C@]2(O)OCC(C)(C)N[C@H]2C)cc1 [Compound 4j, (2S,3S)-3,5,5-Trimethyl-2-(4-methylphenyl)morpholin-2-ol]	IA (IA: AD50 > 15 mg/kg)	> 10 µM	62 µM	832 ± 260 nM		8.6 µM	IA (IA: AD50 > 15 mg/kg)					
C[C@@H]1NC(C)(C)CO[C@@]1(O)c1ccccc1 [Compound 4b, (2S,3S)-2-Phenyl-3,5,5-trimethylmorpholin-2-ol]	IA (IA: AD50 > 15 mg/kg)	> 10 µM	92 µM	1060 ± 30 nM		8.9 µM	IA (IA: AD50 > 15 mg/kg)					
Cc1cccc([C@]2(O)OCC(C)(C)N[C@H]2C)c1 [Compound 4e, (2S,3S)-2-(m-Tolyl)-3,5,5-trimethylmorpholin-2-ol]		> 10 µM	64 µM	2600 ± 400 nM		8.6 µM	IA (IA: AD50 > 15 mg/kg)	2.3 to 7 mg/kg				
